From PMC11435058, “Synthesis of New Thiazole-Privileged Chalcones as Tubulin Polymerization Inhibitors with Potential Anticancer Activities” (Pharmaceuticals, 2024)

What was measured:
HCT-15 = assay: NCI-60 anticancer screen (SRB; single dose and five doses); conditions: Homo sapiens, HCT-15, 48 h, read-out: Growth Percentage
RPMI-8226 = assay: as above; conditions: Homo sapiens, RPMI-8226, 48 h, read-out: Growth Percentage
ACHN = assay: as above; conditions: Homo sapiens, 48 h, read-out: Growth Percentage
BT-549 = assay: as above; conditions: Homo sapiens, BT-549, 48 h, read-out: Growth Percentage
SK-MEL-28 = assay: as above; conditions: Homo sapiens, SK-MEL-28, 48 h, read-out: Growth Percentage
LOX IMVI = assay: as above; conditions: Homo sapiens, 48 h, read-out: Growth Percentage
A498 = assay: as above; conditions: Homo sapiens, A498, 48 h, read-out: Growth Percentage, A498; dose of 10 μM
OVCAR-4 = assay: as above; conditions: Homo sapiens, OVCAR-4, 48 h, read-out: Growth Percentage
DU-145 = assay: as above; conditions: Homo sapiens, DU-145, 48 h, read-out: Growth Percentage
SNB-75 = assay: as above; conditions: Homo sapiens, SNB-75, 48 h, read-out: Growth Percentage
EKVX = assay: as above; conditions: Homo sapiens, 48 h, read-out: Growth Percentage
SN12C = assay: as above; conditions: Homo sapiens, 48 h, read-out: Growth Percentage
SR = assay: as above; conditions: Homo sapiens, 48 h, read-out: Growth Percentage
TK-10 = assay: as above; conditions: Homo sapiens, TK-10, 48 h, read-out: Growth Percentage
COLO 205 = assay: as above; conditions: Homo sapiens, COLO 205, 48 h, read-out: Growth Percentage
CCRF-CEM = assay: NCI-60 anticancer screen (SRB; single dose 10 μM and five doses); conditions: Homo sapiens, 48 h, read-out: Growth Percentage
NCI-H23 = assay: NCI-60 anticancer screen (SRB; single dose and five doses); conditions: Homo sapiens, NCI-H23, 48 h, read-out: Growth Percentage
PC-3 = assay: as above; conditions: Homo sapiens, PC-3, 48 h, read-out: Growth Percentage
NCI-H460 = assay: as above; conditions: Homo sapiens, NCI-H460, 48 h, read-out: Growth Percentage
A549/ATCC = assay: as above; conditions: Homo sapiens, A549, 48 h, read-out: Growth Percentage
NCI/ADR-RES = assay: as above; conditions: Homo sapiens, 48 h, read-out: Growth Percentage
K-562 = assay: as above; conditions: Homo sapiens, K562, 48 h, read-out: Growth Percentage
KM12 = assay: as above; conditions: Homo sapiens, KM12, 48 h, read-out: Growth Percentage
HOP-62 = assay: as above; conditions: Homo sapiens, HOP-62, 48 h, read-out: Growth Percentage
HOP-92 = assay: as above; conditions: Homo sapiens, HOP-92, 48 h, read-out: Growth Percentage
HCC-2998 = assay: as above; conditions: Homo sapiens, HCC 2998, 48 h, read-out: Growth Percentage
T-47D = assay: as above; conditions: Homo sapiens, T47D, 48 h, read-out: Growth Percentage

COc1cccc(/C=C/C(=O)c2sc(=S)[nH]c2C)c1OC [2m, (E)-3-(2,3-Dimethoxyphenyl)-1-(4-Methyl-2-Thioxo-2,3-Dihydrothiazol-5-yl)Prop-2-En-1-One]
activity at 10 µM (HCT-15): 32.7% | activity at 10 µM (RPMI-8226): 9.09% | activity at 10 µM (ACHN): 52.5% | activity at 10 µM (BT-549): 71% | activity at 10 µM (SK-MEL-28): 70% | activity at 10 µM (LOX IMVI): 21.7% | activity at 10 µM (A498): 109% | activity at 10 µM (OVCAR-4): 62.2% | activity at 10 µM (DU-145): 42% | activity at 10 µM (SNB-75): 50.4% | activity at 10 µM (EKVX): 54.5% | activity at 10 µM (SN12C): 45% | activity at 10 µM (SR): 5.15% | activity at 10 µM (TK-10): 64.5% | activity at 10 µM (COLO 205): 103% | activity at 10 µM (CCRF-CEM): 12.4% | activity at 10 µM (NCI-H23): 86.5% | activity at 10 µM (PC-3): 41.6% | activity at 10 µM (NCI-H460): 40.1% | activity at 10 µM (A549/ATCC): 43.1% | activity at 10 µM (NCI/ADR-RES): 30.9% | activity at 10 µM (K-562): 27.5% | activity at 10 µM (KM12): 25.3% | activity at 10 µM (HOP-62): 91.8% | activity at 10 µM (HOP-92): 61.5% | activity at 10 µM (HCC-2998): 79.8% | activity at 10 µM (T-47D): 34.5%
